Experimental data reported in patent publication US20230143612A1 (Arbutus Biopharma Corporation, priority 2020, published 2023).

Target: PD-L1 His protein / PD-1 Fc protein (Homo sapiens, UniProt Q9NZQ7)
Assay: HTRF Assay (PD-1/PD-L1 interaction)
Type: binding
Conditions: PD-L1 His 6 nM, PD-1 Fc 6 nM
Description: PD-L1 His protein was prepared and added at the final concentration of 6 nM in the White opaque 384 well plate (Corning cat #3824BC). PD-L1 small molecule inhibitors were diluted by 3-fold starting from 20 μM and a final concentration of 0.001 μM and added to the well. PD-1 Fc protein was added at the final concentration of 6 nM. PD-L1 His protein, PD-L1 small molecule inhibitors, and PD1 Fc proteins were added to the well in this order, with each 5 μl volume, and were incubated for 15 minutes at room temperature. PAb anti-Human IgG-XL665 (Cisbio, cat #61HFCXLA) and Mab anti-6HIS Tb cryptate Gold (Cisbio, cat #61HI2TLA) were mixed at 6.7 nM and 0.35 nM respectively, and total 5 μl volume of mixture was added to the well and incubated at room temperature for 1 hour. The plate was read using PerkinElmer Envision plate reader and data was analyzed by Prism 6 software.

PD-L1 His protein / PD-1 Fc protein, sequence (Q9NZQ7 19-238 limits assumed): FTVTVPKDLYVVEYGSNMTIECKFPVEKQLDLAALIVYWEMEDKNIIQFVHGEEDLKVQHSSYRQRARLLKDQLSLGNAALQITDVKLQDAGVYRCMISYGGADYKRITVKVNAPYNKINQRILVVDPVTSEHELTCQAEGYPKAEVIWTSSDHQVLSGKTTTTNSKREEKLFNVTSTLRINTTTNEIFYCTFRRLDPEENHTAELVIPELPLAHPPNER

Compound | IC50
CN1CCC(NCCO)c2ccc(-c3cccc(-c4cccc(-c5ccc6c(n5)N(C)CCC6NCCO)c4Cl)c3Cl)nc21 (mixture of isomers) [Example 34, 2,2′-(((2,2′-Dichloro-[1,1′-biphenyl]-3,3′-diyl)bis(1-methyl-1,2,3,4-tetrahydro-1,8-naphthyridine-7,4-diyl))bis(azanediyl))bis(ethan-1-ol)] | 4.8 nM
Cc1c(-c2ccn3c(=O)c(CNC[C@@H]4CCC(=O)N4)cnc3c2)cccc1-c1cccc(-c2ccc3c(c2)CC(N)C3)c1Cl (mixture of isomers) [Example 40, 8-(3′-(2-Amino-2,3-dihydro-1H-inden-5-yl)-2′-chloro-2-methyl-[1,1′-biphenyl]-3-yl)-3-(((((S)-5-oxopyrrolidin-2-yl)methyl)amino)methyl)-4H-pyrido[1,2-a]pyrimidin-4-one] | 61 nM
Cc1c(-c2ccc3c(c2)CC(N)C3)cccc1-c1cccc(-c2ccn3c(=O)c(CNC[C@@H]4CCC(=O)N4)cnc3c2)c1C (mixture of isomers) [Example 41, 8-(3′-(2-Amino-2,3-dihydro-1H-inden-5-yl)-2,2′-dimethyl-[1,1′-biphenyl]-3-yl)-3-(((((S)-5-oxopyrrolidin-2-yl)methyl)amino)methyl)-4H-pyrido[1,2-a]pyrimidin-4-one] | 93 nM
Cc1c(-c2ccn3c(=O)c(CNC[C@@H]4CCC(=O)N4)cnc3c2)cccc1-c1cccc(-c2ccc3c(c2)CC(NC(=O)CN)C3)c1Cl (mixture of isomers) [Example 43, 2-Amino-N-(5-(2-chloro-2′-methyl-3′-(4-oxo-3-(((((S)-5-oxopyrrolidin-2-yl)methyl)amino)methyl)-4H-pyrido[1,2-a]pyrimidin-8-yl)-[1,1′-biphenyl]-3-yl)-2,3-dihydro-1H-inden-2-yl)acetamide] | 270 nM
Cc1c(-c2ccn3c(=O)c(CNC[C@@H]4CCC(=O)N4)cnc3c2)cccc1-c1cccc(-c2ccc3c(c2)CC(NC(=O)[C@@H](N)CO)C3)c1Cl (mixture of isomers) [Example 45, (2S)-2-Amino-N-(5-(2-chloro-2′-methyl-3′-(4-oxo-3-(((((S)-5-oxopyrrolidin-2-yl)methyl)amino)methyl)-4H-pyrido[1,2-a]pyrimidin-8-yl)-[1,1′-biphenyl]-3-yl)-2,3-dihydro-1H-inden-2-yl)-3-hydroxypropanamide] | 680 nM
Cc1c(-c2ccn3c(=O)c(CNC[C@@H]4CCC(=O)N4)cnc3c2)cccc1-c1cccc(-c2ccc3c(c2)CC(NC(=O)[C@@H]2CCCN2)C3)c1Cl (mixture of isomers) [Example 46, (2S)—N-(5-(2-Chloro-2′-methyl-3′-(4-oxo-3-(((((S)-5-oxopyrrolidin-2-yl)methyl)amino)methyl)-4H-pyrido[1,2-a]pyrimidin-8-yl)-[1,1′-biphenyl]-3-yl)-2,3-dihydro-1H-inden-2-yl)pyrrolidine-2-carboxamide] | 520 nM
COc1nc(-c2cccc(-c3cccc(-c4ccn5c(=O)c(CNC6CNC(=O)C6)cnc5c4)c3Cl)c2Cl)ccc1CNC1CNC(=O)C1 (mixture of isomers) [Example 63, 8-(2,2′-Dichloro-3′-(6-methoxy-5-(((5-oxopyrrolidin-3-yl)amino)methyl)pyridin-2-yl)-[1,1′-biphenyl]-3-yl)-3-(((5-oxopyrrolidin-3-yl)amino)methyl)-4H-pyrido[1,2-a]pyrimidin-4-one] | 1.5 nM
COc1nc(-c2cccc(-c3cccc(-c4ccn5c(=O)c(C6=NCC(C(=O)O)N6)cnc5c4)c3Cl)c2Cl)ccc1CNC[C@@H]1CCC(=O)N1 (mixture of isomers) [Example 179, 2-(8-(2,2′-Dichloro-3′-(6-methoxy-5-(((((S)-5-oxopyrrolidin-2-yl)methyl)amino)methyl)pyridin-2-yl)-[1,1′-biphenyl]-3-yl)-4-oxo-4H-pyrido[1,2-a]pyrimidin-3-yl)-4,5-dihydro-1H-imidazole-5-carboxylic acid] | 0.1 nM
COc1nc(-c2cccc(-c3cccc(-c4ccn5c(=O)c(CNC[C@@H]6CCC(=O)N6)cnc5c4)c3Cl)c2Cl)ccc1C1=NCCC(C(=O)O)N1 (mixture of isomers) [Example 180, 2-(6-(2,2′-Dichloro-3′-(4-oxo-3-(((((S)-5-oxopyrrolidin-2-yl)methyl)amino)methyl)-4H-pyrido[1,2-a]pyrimidin-8-yl)-[1,1′-biphenyl]-3-yl)-2-methoxypyridin-3-yl)-3,4,5,6-tetrahydropyrimidine-4-carboxylic acid] | 0.9 nM
COc1nc(-c2cccc(-c3cccc(-c4ccn5c(=O)c(C6=NCCC(C(=O)O)N6)cnc5c4)c3Cl)c2Cl)ccc1CNC[C@@H]1CCC(=O)N1 (mixture of isomers) [Example 199, 2-(8-(2,2′-Dichloro-3′-(6-methoxy-5-(((((S)-5-oxopyrrolidin-2-yl)methyl)amino)methyl)pyridin-2-yl)-[1,1′-biphenyl]-3-yl)-4-oxo-4H-pyrido[1,2-a]pyrimidin-3-yl)-3,4,5,6-tetrahydropyrimidine-4-carboxylic acid] | 0.1 nM
COc1nc(-c2cccc(-c3cccc(-c4ccn5c(=O)c(CNCC6CCCC(=O)N6)cnc5c4)c3Cl)c2Cl)ccc1CNC[C@@H]1CCC(=O)N1 (mixture of isomers) [Example 206, 8-(2,2′-Dichloro-3′-(6-methoxy-5-(((((S)-5-oxopyrrolidin-2-yl)methyl)amino)methyl)pyridin-2-yl)-[1,1′-biphenyl]-3-yl)-3-((((6-oxopiperidin-2-yl)methyl)amino)methyl)-4H-pyrido[1,2-a]pyrimidin-4-one] | 14 nM
COc1nc(CC2CCc3c(-c4cccc(-c5ccn6c(=O)c(CNC[C@@H]7CCC(=O)N7)cnc6c5)c4Cl)cccc32)c(Cl)cc1CNC[C@@H]1CCC(=O)N1 (mixture of isomers) [Example 213, 8-(2-chloro-3-(1-((3-chloro-6-methoxy-5-(((((S)-5-oxopyrrolidin-2-yl)methyl)amino)methyl)pyridin-2-yl)methyl)-2,3-dihydro-1H-inden-4-yl)phenyl)-3-(((((S)-5-oxopyrrolidin-2-yl)methyl)amino)methyl)-4H-pyrido[1,2-a]pyrimidin-4-one] | 3700 nM
COc1nc(-c2cccc(-c3cccc(-c4ccn5c(=O)c(CNCC6CC(F)(F)C(=O)N6)cnc5c4)c3Cl)c2Cl)ccc1CNC[C@@H]1CCC(=O)N1 (mixture of isomers) [Example 253, 8-[2-Chloro-3-[2-chloro-3-[6-methoxy-5-[[[(2S)-5-oxopyrrolidin-2-yl]methylamino]methyl]-2-pyridyl]phenyl]phenyl]-3-[[(4,4-difluoro-5-oxo-pyrrolidin-2-yl)methylamino]methyl]pyrido[1,2-a]pyrimidin-4-one] | 5.7 nM
COc1nc(-c2cccc(-c3cccc(-c4ccn5c(=O)c(CN6CCC6C(N)=O)cnc5c4)c3Cl)c2Cl)ccc1CNC[C@@H]1CCC(=O)N1 (mixture of isomers) [Example 259, 1-[[8-[2-Chloro-3-[2-chloro-3-[6-methoxy-5-[[[(2S)-5-oxopyrrolidin-2-yl]methylamino]methyl]-2-pyridyl]phenyl]phenyl]-4-oxo-pyrido[1,2-a]pyrimidin-3-yl]methyl]azetidine-2-carboxamide] | 2.3 nM
